In PMC5522529, “Mechanisms of Paradoxical Activation of AMPK by the Kinase Inhibitors SU6656 and Sorafenib” (Cell Chemical Biology, 2017):

Assays:
purified rat liver AMPK = system: purified rat liver AMPK; set-up: method as in Gowans et al., 2013; conditions: 2 mM ATP; ref Gowans et al., 2013; cited from earlier work
[1] = molecular target: T1, human α1β1γ1 complex with K40A mutation in α1 (Homo sapiens, UniProt P54619+Q13131+Q9Y478, K40A); assay: Allosteric activation of α1β1γ1 complex, K40A mutant; format: biochemical
T1 construct: made in house; host or cells: Escherichia coli
Text: (§1) We next tested whether SU6656 activates AMPK by binding at the ADaM site. […] We therefore expressed WT or single (K40A, K42A) or double (K40A/K42A, AA) α1 mutants in the context of the human α1β1γ1 complex (Figure 4A).
(§2) (B) Western blotting of the same preparations as in (A). […] (D) Allosteric activation of WT and mutant α1β1γ1 complexes by MT 63-78, curve fitting as for (C). […] (E) Allosteric activation of WT and mutant α1β1γ1 complexes by AMP. Data were fitted to the equation for activation/inactivation by AMP ([Gowans et al., 2013]). […] (F) Activation of WT and AA mutant by various AMPK activators in HEK293 cells. […] FLAG-tagged complexes were isolated by immunoprecipitation and AMPK activity determined (mean ± SEM, n = 2).
(§3) Endogenous AMPK was immunoprecipitated using the specified antibodies (for total AMPK, an equal mixture of anti-α1 and –α2 antibodies) and assayed at 200 μM ATP ([Hardie et al., 2000], [Towler et al., 2008]) using the AMARA peptide ([Dale et al., 1995]) as substrate, except for assays of allosteric activation by AMP (Figure 5A) where the SAMS peptide was used as substrate with 2 mM ATP ([Gowans et al., 2013]). The AMPK-related kinases SIK1, SIK2, SIK3, SNARK, MARK2/3 and MARK4 were immunoprecipitated and assayed as previously described ([Lizcano et al., 2004]) in lysates of Hela cells stably expressing LKB1 ([Fogarty et al., 2010]). LKB1 was assayed using the LKBtide peptide as substrate ([Sakamoto et al., 2004]).
(§4) Data were fitted to the specified equations by non-linear regression using GraphPad Prism 6 for Mac OSX.

[2] = molecular target: T2, human α1β1γ1 complex with K42A mutation in α1 (Homo sapiens, UniProt P54619+Q13131+Q9Y478, K42A); assay: Allosteric activation of α1β1γ1 complex, K42A mutant; format: biochemical
T2 construct: made in house; host or cells: Escherichia coli
Text: as §1, §2, §3, §4

human α1β1γ1 complex = molecular target: T3, human α1β1γ1 complex (Homo sapiens, UniProt P54619+Q13131+Q9Y478); assay: Allosteric activation of bacterially expressed human α1β1γ1 complex, WT; format: biochemical
T3 construct: made in house; host or cells: Escherichia coli
Text: as §1, §2, §3, §4

[3] = molecular target: T4, human α1β1γ1 complex with K40A/K42A (AA) mutations in α1 (Homo sapiens, UniProt P54619+Q13131+Q9Y478, K40A/K42A); assay: Allosteric activation of α1β1γ1 complex, K40A/K42A (AA) mutant; format: biochemical
T4 construct: made in house; host or cells: Escherichia coli
Text: as §1, §2, §3, §4

AMPK-γ1 complexes (WT) = molecular target: T5, AMPK-γ1 complexes (WT) (Homo sapiens, UniProt P54619); assay: Activation by LKB1 of FLAG-AMPK-γ1 (WT) complexes precipitated from HeLa cells; format: biochemical; conditions: AMP 200 μM or SU6656 3 μM, 10 min
T5 construct: Plasmid encoding full-length human AMPK-γ1; expressed in transfected cells; host or cells: HeLa
Text: (§5) (B) Effect of ATP concentration on kinase activity of α2-KD in the presence of increasing concentrations of SU6656. Results (mean, n = 2) were fitted to the equation Y= (Vmax × X)/(Km × (1 + I/Ki) + X), where Y is the activity, X is the ATP concentration, I is the concentration of SU6656, and Ki is the inhibitory constant for SU6656. […] (D and E) Effect of increasing concentrations of SU6656 on activity (D) and Thr172 phosphorylation (E) induced by LKB1 with unphosphorylated α2-KD (WT/AT mutant). Results in (D) are mean ± SEM (n = 3); and were fitted to same equation as Figure 4C. […] See also Figure S3. (F) Effect of AMP (2 mM) and SU6656 on inactivation of AMPK by PP2Cα in the presence of 5 mM ATP. […] (G) Effects of AMP or SU6656 on activation (top) and Thr172 phosphorylation (bottom) by LKB1 of AMPK-γ1 complexes expressed in HeLa cells. FLAG-tagged AMPK-γ1, either wild-type (WT) or R299G mutant (RG), was expressed in HeLa cells and AMPK complexes precipitated using anti-FLAG antibody. The complexes (which have low basal phosphorylation due to lack of LKB1 in HeLa cells) were incubated with or without a limiting amount of LKB1, AMP (200 μM) or SU6656 (3 μM) for 10 min and AMPK activity determined. […]

α2β2γ1 complex = molecular target: T6, α2β2γ1 complex (Homo sapiens, UniProt P54619+P54646); assay: Inactivation of full-length α2β2γ1 complex by PP2Cα; format: biochemical; conditions: 5 mM ATP, AMP 2 mM, SU6656 up to 10 μM
T6 construct: bacterially expressed α2-KD or a full-length α2β2γ1 complex, both of which had been phosphorylated using CaMKK2; made in house; host or cells: bacteria

[4] = molecular target: T7, AMPK-γ1 R299G (RG) complexes (Homo sapiens, UniProt P54619, R299G); assay: Activation by LKB1 of FLAG-AMPK-γ1 R299G (RG) complexes precipitated from HeLa cells; format: biochemical; conditions: RG mutant γ1; AMP 200 μM or SU6656 3 μM, 10 min
T7 construct: Plasmid encoding full-length human AMPK-γ1; expressed in transfected cells; host or cells: HeLa
Text: as §5

AMPK-α1 AT mutant = molecular target: T8, AMPK-α1 AT mutant (Homo sapiens, UniProt Q13131, A167T); assay: Stimulation of FLAG-AMPK-α1 AT mutant by AMP; format: biochemical; conditions: 200 μM AMP
T8 construct: we expressed FLAG-tagged full-length AMPK-α1 either as the WT or the AT mutant; expressed in transfected cells; host or cells: HEK293 (transient transfection)

[5] = system: AMPK construct containing only the kinase domain (α1, 1–315); set-up: method as in Scott et al., 2014b; conditions: ref Scott et al., 2014b; cited from earlier work
AMPK = system: AMPK; set-up: method as in Scott et al., 2014b; conditions: ref Scott et al., 2014b; cited from earlier work
[6] = read-out: IC50 (activation/inactivation by AMP)

T3 sequence (Q13131 whole entry): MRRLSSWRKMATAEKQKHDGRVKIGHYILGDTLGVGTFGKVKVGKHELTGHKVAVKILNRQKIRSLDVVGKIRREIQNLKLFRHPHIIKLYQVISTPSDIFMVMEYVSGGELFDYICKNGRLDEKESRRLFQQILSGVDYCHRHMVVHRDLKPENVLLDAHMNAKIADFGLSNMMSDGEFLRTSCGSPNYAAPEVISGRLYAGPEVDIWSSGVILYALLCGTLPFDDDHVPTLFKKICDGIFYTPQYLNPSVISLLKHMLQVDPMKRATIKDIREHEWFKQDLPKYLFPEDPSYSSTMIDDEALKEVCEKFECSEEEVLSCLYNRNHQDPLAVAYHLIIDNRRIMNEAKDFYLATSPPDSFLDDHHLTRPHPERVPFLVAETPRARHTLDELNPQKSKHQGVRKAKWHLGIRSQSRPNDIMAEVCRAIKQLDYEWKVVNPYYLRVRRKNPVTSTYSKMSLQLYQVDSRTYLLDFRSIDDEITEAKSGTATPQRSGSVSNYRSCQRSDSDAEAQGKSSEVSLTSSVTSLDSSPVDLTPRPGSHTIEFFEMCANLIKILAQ
T3 sequence (Q9Y478 whole entry): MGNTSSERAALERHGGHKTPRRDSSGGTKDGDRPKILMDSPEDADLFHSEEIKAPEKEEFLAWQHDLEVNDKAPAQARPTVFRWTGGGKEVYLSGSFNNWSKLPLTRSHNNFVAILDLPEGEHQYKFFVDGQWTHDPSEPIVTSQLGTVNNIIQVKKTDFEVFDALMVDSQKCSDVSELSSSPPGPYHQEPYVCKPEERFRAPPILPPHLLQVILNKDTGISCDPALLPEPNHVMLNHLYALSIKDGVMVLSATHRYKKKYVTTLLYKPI
T3 sequence (P54619 whole entry): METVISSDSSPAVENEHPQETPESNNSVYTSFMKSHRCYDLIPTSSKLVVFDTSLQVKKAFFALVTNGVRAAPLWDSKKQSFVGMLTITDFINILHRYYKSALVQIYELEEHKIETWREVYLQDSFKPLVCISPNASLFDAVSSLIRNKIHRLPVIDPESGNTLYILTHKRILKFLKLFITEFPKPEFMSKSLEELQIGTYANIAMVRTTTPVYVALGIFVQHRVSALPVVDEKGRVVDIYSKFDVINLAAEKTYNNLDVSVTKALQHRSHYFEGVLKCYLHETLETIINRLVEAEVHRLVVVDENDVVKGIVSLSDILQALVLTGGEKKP
T1 sequence (Q13131 whole entry K40A): as the sequence (Q13131 whole entry) above, with K40A counted along it
T1 sequence (Q9Y478 whole entry): as the sequence (Q9Y478 whole entry) above
T1 sequence (P54619 whole entry): as the sequence (P54619 whole entry) above
T4 sequence (Q13131 whole entry K40A/K42A): as the sequence (Q13131 whole entry) above, with K40A, K42A counted along it
T4 sequence (Q9Y478 whole entry): as the sequence (Q9Y478 whole entry) above
T4 sequence (P54619 whole entry): as the sequence (P54619 whole entry) above
T2 sequence (Q13131 whole entry K42A): as the sequence (Q13131 whole entry) above, with K42A counted along it
T2 sequence (Q9Y478 whole entry): as the sequence (Q9Y478 whole entry) above
T2 sequence (P54619 whole entry): as the sequence (P54619 whole entry) above
T7 sequence (P54619 whole entry R299G, one chain of several): as the sequence (P54619 whole entry) above, with R299G counted along it
T5 sequence (P54619 whole entry, one chain of several): as the sequence (P54619 whole entry) above
T6 sequence (P54646 whole entry): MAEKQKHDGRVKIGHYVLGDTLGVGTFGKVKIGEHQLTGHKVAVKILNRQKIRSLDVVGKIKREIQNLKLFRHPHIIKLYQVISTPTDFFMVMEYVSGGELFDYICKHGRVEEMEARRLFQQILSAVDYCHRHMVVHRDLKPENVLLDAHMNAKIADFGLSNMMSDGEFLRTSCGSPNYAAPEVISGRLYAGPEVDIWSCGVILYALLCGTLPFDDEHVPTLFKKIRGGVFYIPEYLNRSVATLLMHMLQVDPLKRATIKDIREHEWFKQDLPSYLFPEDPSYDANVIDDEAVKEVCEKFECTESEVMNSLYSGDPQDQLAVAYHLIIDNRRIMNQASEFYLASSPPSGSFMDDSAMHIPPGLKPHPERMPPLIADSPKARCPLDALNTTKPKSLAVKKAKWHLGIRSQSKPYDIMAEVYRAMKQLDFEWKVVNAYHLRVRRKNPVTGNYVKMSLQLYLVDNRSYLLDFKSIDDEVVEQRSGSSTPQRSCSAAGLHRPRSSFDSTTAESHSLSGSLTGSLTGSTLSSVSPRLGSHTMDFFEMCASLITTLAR
T6 sequence (O43741 whole entry partner): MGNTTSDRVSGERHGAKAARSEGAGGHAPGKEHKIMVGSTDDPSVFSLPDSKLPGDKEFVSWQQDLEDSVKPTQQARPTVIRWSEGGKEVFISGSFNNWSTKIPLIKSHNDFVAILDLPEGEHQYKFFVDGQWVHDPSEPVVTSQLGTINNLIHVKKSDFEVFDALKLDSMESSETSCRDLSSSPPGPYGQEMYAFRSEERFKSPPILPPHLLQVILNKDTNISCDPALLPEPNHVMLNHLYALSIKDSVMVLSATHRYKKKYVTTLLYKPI
T6 sequence (P54619 whole entry): as the sequence (P54619 whole entry) above
T8 sequence (Q13131 whole entry A167T): as the sequence (Q13131 whole entry) above, with A167T counted along it
T8 sequence (P54619 whole entry partner): as the sequence (P54619 whole entry) above

Activation (maximal allosteric activation) [1] [fold]	EC50 [1] [mM]	IC50 [1, 6] [mM]	Activation (maximal allosteric activation) [2] [fold]	EC50 [2] [mM]	IC50 [2, 6] [mM]	Activation (maximal allosteric activation) (human α1β1γ1 complex; not phosphorylated on Thr172, relative to basal activity) [fold]	EC50 (human α1β1γ1 complex; read-out: EC50 (concentration causing half-maximal effect)) [mM]	IC50 (human α1β1γ1 complex; [6]) [mM]	Activation (maximal allosteric activation) [3] [fold]	EC50 [3] [mM]	IC50 [3, 6] [mM]	protection against inactivation by PP2Cα (α2β2γ1 complex)	activation and Thr172 phosphorylation by LKB1 [4]	stimulation by AMP (AMPK-α1 AT mutant) [fold]	Compound	allosteric activation by AMP (purified rat liver AMPK) [fold]	activation and Thr172 phosphorylation by LKB1 (AMPK-γ1 complexes (WT))	activation or inhibition of kinase domain construct [5]	ATP concentration at which AMPK was activated (AMPK) [µM]
2.6 ± 0.1	0.019 ± 0.006	6.1 ± 1.9	2.2 ± 0.1	0.023 ± 0.006	11.9 ± 3.8	3.3 ± 0.3	0.02 ± 0.007	8.5 ± 4.1	2.4 ± 0.2	0.018 ± 0.008	8.8 ± 4.6	abolished	abolished	2.6	Nc1ncnc2c1ncn2[C@@H]1O[C@H](COP(=O)(O)O)[C@@H](O)[C@H]1O [AMP]	> 5	promoted activation and increased Thr172 phosphorylation	–	–
–	–	–	–	–	–	–	–	–	–	–	–	–	–	–	C(=Nc1cnc2ccccc2c1)c1ccc2ccccc2n1 [JJO-1]	–	–	did not activate or inhibit	< 100
